Structures are written as SMILES. Values joined by “and” are separate entries in the source; they are usually repeats but may differ in a detail not shown here. Equal values may be shown once. Numbers after ± are expanded uncertainties.

This data set in a line: molar heat capacity at constant pressure. The conditions noted are these: 5000 kPa, Liquid, thermal relaxation.

Take `CC(F)(F)F` [1,1,1-trifluoroethane]: the “molar heat capacity at constant pressure” value is, setting by setting: (310 K) 136.15 ± 6.7 J/K/mol; (315 K) 140.35 ± 7.6 J/K/mol; (320 K) 145.39 ± 7.6 J/K/mol; (325 K) 150.43 ± 7.6 J/K/mol; (330 K) 155.47 ± 8.4 J/K/mol; (335 K) 162.2 ± 8.4 J/K/mol. Besides, the “molar heat capacity at constant pressure” value by setting is: (340 K) 173.96 ± 9.2 J/K/mol; (345 K) 189.93 ± 10 J/K/mol and 192.45 ± 10 J/K/mol; (350 K) 224.39 ± 12 J/K/mol.

`FCF` [difluoromethane]: the “molar heat capacity at constant pressure” value runs as follows: (310 K) 106.65 ± 5.7 J/K/mol; (315 K) 109.77 ± 5.7 J/K/mol; (320 K) 113.41 ± 5.7 J/K/mol; (325 K) 119.65 ± 6.2 J/K/mol; (330 K) 125.9 ± 6.8 J/K/mol; (335 K) 138.9 ± 7.3 J/K/mol. Also, the “molar heat capacity at constant pressure” value (340 K) was 164.39 ± 8.3 J/K/mol.

Consider `FC(F)C(F)(F)F` [pentafluoroethane], for which the “molar heat capacity at constant pressure” value was 154.83 ± 8.4 J/K/mol (310 K); 159.63 ± 8.4 J/K/mol (315 K); 163.23 ± 8.4 J/K/mol (320 K); 171.63 ± 8.4 J/K/mol (325 K); 182.43 ± 9.6 J/K/mol and 183.63 ± 9.6 J/K/mol (330 K); 193.23 ± 9.6 J/K/mol (335 K). Further, the “molar heat capacity at constant pressure” value was 217.24 ± 11 J/K/mol and 212.44 ± 11 J/K/mol (340 K); 242.44 ± 13 J/K/mol (345 K); 282.05 ± 14 J/K/mol (350 K).

(Values after the NIST ThermoML archive (doi:10.1021/je900661c).)
